Assay results from ChEMBL document CHEMBL1811880, “Studies on quinones. Part 47. Synthesis of novel phenylaminophenanthridinequinones as potential antitumor agents” (Eur J Med Chem, 2011).

tested on: MRC5; assay: Anticancer activity against human MRC5 cells after 3 days by MTT assay; assay type: ADME, cell-based; settings: MRC5, 72 h

Compound | IC50 [µM]
COc1ccc(OC)c(NC2=CC(=O)c3c(c(C)nc4c3C(=O)CCC4)C2=O)c1 | 5
O=C1CCCc2nc(-c3ccccc3)c3c(c21)C(=O)C=CC3=O | 31.2
O=C1CCCc2nc(-c3ccco3)c3c(c21)C(=O)C=CC3=O | 59
O=C1CCCc2nc(-c3ccsc3)c3c(c21)C(=O)C=CC3=O | 71
O=C1C(Nc2ccccc2)=CC(=O)c2c1cnc1c2C(=O)CCC1 | 1.4
COc1ccc(NC2=CC(=O)c3c(cnc4c3C(=O)CCC4)C2=O)cc1 | 2.6
COc1ccc(OC)c(NC2=CC(=O)c3c(cnc4c3C(=O)CCC4)C2=O)c1 | 2.6
CN(C1=CC(=O)c2c(cnc3c2C(=O)CCC3)C1=O)c1ccccc1 | 7.5
CCN(C1=CC(=O)c2c(cnc3c2C(=O)CCC3)C1=O)c1ccccc1 | 8.6
O=C1C=C(Nc2ccccc2)C(=O)c2c1cnc1c2C(=O)CCC1 | 5.9
COc1ccc(NC2=CC(=O)c3cnc4c(c3C2=O)C(=O)CCC4)cc1 | 4.8
COc1ccc(OC)c(NC2=CC(=O)c3cnc4c(c3C2=O)C(=O)CCC4)c1 | 46.4
CN(C1=CC(=O)c2cnc3c(c2C1=O)C(=O)CCC3)c1ccccc1 | 7.3
CCN(C1=CC(=O)c2cnc3c(c2C1=O)C(=O)CCC3)c1ccccc1 | 19.6
Cc1nc2c(c3c1C(=O)C(Nc1ccccc1)=CC3=O)C(=O)CCC2 | 2
COc1ccc(NC2=CC(=O)c3c(c(C)nc4c3C(=O)CCC4)C2=O)cc1 | 5.2
Cc1nc2c(c3c1C(=O)C(Nc1ccc(O)cc1)=CC3=O)C(=O)CCC2 | 2.6
COc1ccccc1NC1=CC(=O)c2c(c(C)nc3c2C(=O)CCC3)C1=O | 1.6
Cc1nc2c(c3c1C(=O)C(Nc1ccc(F)cc1)=CC3=O)C(=O)CCC2 | 3
O=C1CCCc2nc(-c3ccccc3)c3c(c21)C(=O)C=C(Nc1ccccc1)C3=O | 2.7
O=C1CCCc2nc(-c3ccco3)c3c(c21)C(=O)C=C(Nc1ccccc1)C3=O | 2.7
O=C1CCCc2nc(-c3ccsc3)c3c(c21)C(=O)C=C(Nc1ccccc1)C3=O | 2.8
COc1ccc(OC)c(NC2=CC(=O)c3c(cnc4cccc(O)c34)C2=O)c1 | 0.53
COc1ccc(OC)c(NC2=CC(=O)c3cnc4cccc(O)c4c3C2=O)c1 | 17.2

tested on: MRC5; assay: Selectivity index, ratio IC50 for human MRC5 cells to IC50 for human SKMES1 cells; assay type: functional; settings: not given

Compound | Ratio IC50
O=C1C(Nc2ccccc2)=CC(=O)c2c1cnc1c2C(=O)CCC1 | 6
COc1ccc(OC)c(NC2=CC(=O)c3c(cnc4c3C(=O)CCC4)C2=O)c1 | 6
O=C1CCCc2nc(-c3ccccc3)c3c(c21)C(=O)C=C(Nc1ccccc1)C3=O | 6
O=C1CCCc2nc(-c3ccsc3)c3c(c21)C(=O)C=C(Nc1ccccc1)C3=O | 6

tested on: MRC5; assay: Selectivity index, ratio IC50 for human MRC5 cells to IC50 for human AGS cells; assay type: functional; settings: not given

Compound | Ratio IC50
O=C1C(Nc2ccccc2)=CC(=O)c2c1cnc1c2C(=O)CCC1 | 6
COc1ccc(OC)c(NC2=CC(=O)c3c(cnc4c3C(=O)CCC4)C2=O)c1 | 6
O=C1CCCc2nc(-c3ccccc3)c3c(c21)C(=O)C=C(Nc1ccccc1)C3=O | 6
O=C1CCCc2nc(-c3ccsc3)c3c(c21)C(=O)C=C(Nc1ccccc1)C3=O | 6

tested on: AGS; assay: Anticancer activity against human AGS cells after 3 days by MTT assay; assay type: functional, cell-based; settings: 72 h

Compound | IC50 [µM]
COc1ccc(OC)c(NC2=CC(=O)c3c(c(C)nc4c3C(=O)CCC4)C2=O)c1 | 1.4
O=C1CCCc2nc(-c3ccccc3)c3c(c21)C(=O)C=CC3=O | 13.9
O=C1CCCc2nc(-c3ccco3)c3c(c21)C(=O)C=CC3=O | 68
O=C1CCCc2nc(-c3ccsc3)c3c(c21)C(=O)C=CC3=O | 37.1
O=C1C(Nc2ccccc2)=CC(=O)c2c1cnc1c2C(=O)CCC1 | 0.23
COc1ccc(NC2=CC(=O)c3c(cnc4c3C(=O)CCC4)C2=O)cc1 | 0.47
COc1ccc(OC)c(NC2=CC(=O)c3c(cnc4c3C(=O)CCC4)C2=O)c1 | 0.32
CN(C1=CC(=O)c2c(cnc3c2C(=O)CCC3)C1=O)c1ccccc1 | 4.7
CCN(C1=CC(=O)c2c(cnc3c2C(=O)CCC3)C1=O)c1ccccc1 | 4.4
O=C1C=C(Nc2ccccc2)C(=O)c2c1cnc1c2C(=O)CCC1 | 3.9
COc1ccc(NC2=CC(=O)c3cnc4c(c3C2=O)C(=O)CCC4)cc1 | 2.2
COc1ccc(OC)c(NC2=CC(=O)c3cnc4c(c3C2=O)C(=O)CCC4)c1 | 32.9
CN(C1=CC(=O)c2cnc3c(c2C1=O)C(=O)CCC3)c1ccccc1 | 8.3
CCN(C1=CC(=O)c2cnc3c(c2C1=O)C(=O)CCC3)c1ccccc1 | 17.1
Cc1nc2c(c3c1C(=O)C(Nc1ccccc1)=CC3=O)C(=O)CCC2 | 0.65
COc1ccc(NC2=CC(=O)c3c(c(C)nc4c3C(=O)CCC4)C2=O)cc1 | 1.2
Cc1nc2c(c3c1C(=O)C(Nc1ccc(O)cc1)=CC3=O)C(=O)CCC2 | 1.2
COc1ccccc1NC1=CC(=O)c2c(c(C)nc3c2C(=O)CCC3)C1=O | 0.22
Cc1nc2c(c3c1C(=O)C(Nc1ccc(F)cc1)=CC3=O)C(=O)CCC2 | 0.79
O=C1CCCc2nc(-c3ccccc3)c3c(c21)C(=O)C=C(Nc1ccccc1)C3=O | 0.33
O=C1CCCc2nc(-c3ccco3)c3c(c21)C(=O)C=C(Nc1ccccc1)C3=O | 0.58
O=C1CCCc2nc(-c3ccsc3)c3c(c21)C(=O)C=C(Nc1ccccc1)C3=O | 0.35
COc1ccc(OC)c(NC2=CC(=O)c3c(cnc4cccc(O)c34)C2=O)c1 | 0.18
COc1ccc(OC)c(NC2=CC(=O)c3cnc4cccc(O)c4c3C2=O)c1 | 19.8

tested on: SK-MES-1; assay: Anticancer activity against human SKMES1 cells after 3 days by MTT assay; assay type: functional, cell-based; settings: SK-MES-1, 72 h

Compound | IC50 [µM]
COc1ccc(OC)c(NC2=CC(=O)c3c(c(C)nc4c3C(=O)CCC4)C2=O)c1 | 21.7
O=C1CCCc2nc(-c3ccccc3)c3c(c21)C(=O)C=CC3=O | 73
O=C1CCCc2nc(-c3ccco3)c3c(c21)C(=O)C=CC3=O | 96.9
O=C1CCCc2nc(-c3ccsc3)c3c(c21)C(=O)C=CC3=O | 76.7
O=C1C(Nc2ccccc2)=CC(=O)c2c1cnc1c2C(=O)CCC1 | 1.3
COc1ccc(NC2=CC(=O)c3c(cnc4c3C(=O)CCC4)C2=O)cc1 | 2
COc1ccc(OC)c(NC2=CC(=O)c3c(cnc4c3C(=O)CCC4)C2=O)c1 | 1.8
CN(C1=CC(=O)c2c(cnc3c2C(=O)CCC3)C1=O)c1ccccc1 | 10.6
CCN(C1=CC(=O)c2c(cnc3c2C(=O)CCC3)C1=O)c1ccccc1 | 11.7
O=C1C=C(Nc2ccccc2)C(=O)c2c1cnc1c2C(=O)CCC1 | 7.5
COc1ccc(NC2=CC(=O)c3cnc4c(c3C2=O)C(=O)CCC4)cc1 | 3.7
COc1ccc(OC)c(NC2=CC(=O)c3cnc4c(c3C2=O)C(=O)CCC4)c1 | 21.3
CN(C1=CC(=O)c2cnc3c(c2C1=O)C(=O)CCC3)c1ccccc1 | 8.7
CCN(C1=CC(=O)c2cnc3c(c2C1=O)C(=O)CCC3)c1ccccc1 | 17.7
Cc1nc2c(c3c1C(=O)C(Nc1ccccc1)=CC3=O)C(=O)CCC2 | 5.7
COc1ccc(NC2=CC(=O)c3c(c(C)nc4c3C(=O)CCC4)C2=O)cc1 | 4.1
Cc1nc2c(c3c1C(=O)C(Nc1ccc(O)cc1)=CC3=O)C(=O)CCC2 | 3.2
COc1ccccc1NC1=CC(=O)c2c(c(C)nc3c2C(=O)CCC3)C1=O | 4.3
Cc1nc2c(c3c1C(=O)C(Nc1ccc(F)cc1)=CC3=O)C(=O)CCC2 | 3.3
O=C1CCCc2nc(-c3ccccc3)c3c(c21)C(=O)C=C(Nc1ccccc1)C3=O | 2.8
O=C1CCCc2nc(-c3ccco3)c3c(c21)C(=O)C=C(Nc1ccccc1)C3=O | 3.1
O=C1CCCc2nc(-c3ccsc3)c3c(c21)C(=O)C=C(Nc1ccccc1)C3=O | 2.9
COc1ccc(OC)c(NC2=CC(=O)c3c(cnc4cccc(O)c34)C2=O)c1 | 0.63
COc1ccc(OC)c(NC2=CC(=O)c3cnc4cccc(O)c4c3C2=O)c1 | 13.5

tested on: MRC5; assay: Selectivity index, ratio IC50 for human MRC5 cells to IC50 for human J82 cells; assay type: functional; settings: not given

Compound | Ratio IC50
COc1ccc(OC)c(NC2=CC(=O)c3cnc4cccc(O)c4c3C2=O)c1 | 28

tested on: J82; assay: Anticancer activity against human J82 cells after 3 days by MTT assay; assay type: functional, cell-based; settings: J82, 72 h

Compound | IC50 [µM]
COc1ccc(OC)c(NC2=CC(=O)c3c(c(C)nc4c3C(=O)CCC4)C2=O)c1 | 7.1
O=C1CCCc2nc(-c3ccccc3)c3c(c21)C(=O)C=CC3=O | 57.6
O=C1CCCc2nc(-c3ccco3)c3c(c21)C(=O)C=CC3=O | 80.4
O=C1CCCc2nc(-c3ccsc3)c3c(c21)C(=O)C=CC3=O | > 100
O=C1C(Nc2ccccc2)=CC(=O)c2c1cnc1c2C(=O)CCC1 | 2.1
COc1ccc(NC2=CC(=O)c3c(cnc4c3C(=O)CCC4)C2=O)cc1 | 2.8
COc1ccc(OC)c(NC2=CC(=O)c3c(cnc4c3C(=O)CCC4)C2=O)c1 | 2.5
CN(C1=CC(=O)c2c(cnc3c2C(=O)CCC3)C1=O)c1ccccc1 | 12.9
CCN(C1=CC(=O)c2c(cnc3c2C(=O)CCC3)C1=O)c1ccccc1 | 15.2
O=C1C=C(Nc2ccccc2)C(=O)c2c1cnc1c2C(=O)CCC1 | 8.1
COc1ccc(NC2=CC(=O)c3cnc4c(c3C2=O)C(=O)CCC4)cc1 | 4
COc1ccc(OC)c(NC2=CC(=O)c3cnc4c(c3C2=O)C(=O)CCC4)c1 | 56.7
CN(C1=CC(=O)c2cnc3c(c2C1=O)C(=O)CCC3)c1ccccc1 | 8.4
CCN(C1=CC(=O)c2cnc3c(c2C1=O)C(=O)CCC3)c1ccccc1 | 19.5
Cc1nc2c(c3c1C(=O)C(Nc1ccccc1)=CC3=O)C(=O)CCC2 | 4.2
COc1ccc(NC2=CC(=O)c3c(c(C)nc4c3C(=O)CCC4)C2=O)cc1 | 3
Cc1nc2c(c3c1C(=O)C(Nc1ccc(O)cc1)=CC3=O)C(=O)CCC2 | 1.9
COc1ccccc1NC1=CC(=O)c2c(c(C)nc3c2C(=O)CCC3)C1=O | 3.7
Cc1nc2c(c3c1C(=O)C(Nc1ccc(F)cc1)=CC3=O)C(=O)CCC2 | 3.8
O=C1CCCc2nc(-c3ccccc3)c3c(c21)C(=O)C=C(Nc1ccccc1)C3=O | 2.9
O=C1CCCc2nc(-c3ccco3)c3c(c21)C(=O)C=C(Nc1ccccc1)C3=O | 2.4
O=C1CCCc2nc(-c3ccsc3)c3c(c21)C(=O)C=C(Nc1ccccc1)C3=O | 2.5
COc1ccc(OC)c(NC2=CC(=O)c3c(cnc4cccc(O)c34)C2=O)c1 | 1.4
COc1ccc(OC)c(NC2=CC(=O)c3cnc4cccc(O)c4c3C2=O)c1 | 0.61
O=C1C=CC(=O)c2c1cnc1c2C(=O)CCC1 | 15.8
COc1cc([C@@H]2c3cc4c(cc3[C@@H](O[C@@H]3O[C@@H]5CO[C@@H](C)O[C@H]5[C@H](O)[C@H]3O)[C@H]3COC(=O)[C@H]23)OCO4)cc(OC)c1O [ETOPOSIDE] | 0.8
